15 molecules from patent US12281122B1, “PI3K inhibitors” (Cogent Biosciences, Inc., priority 2023, dated 2025) can be followed below.

The IC50 is the point on the concentration scale where inhibition reaches its midpoint.

For experiment [1], the system named is T47D (PI3Kα-H1047R) cell line. Nature of the experiment: HTRF phospho-AKT(S473) cell assay in T47D cells. In kind it is cell-based, human. Put shortly: (§1)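 T47D: RPMI + 10% FBS + 0.2 units/mL insulin, top 5 μM. SKBR3: McCoy's 5A + 10% FBS, top 10 μM, 70 ng/ml PDGF-BB last 15 min. Both: 12-pt 1:3, 2 h, 37° C, max 0.5% DMSO; HTRF pAKT(S473); IC50.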
Experiment [2] relates to SKBR3 (PI3Kα-Wild Type) cell line. The experiment is described as follows: HTRF phospho-AKT(S473) cell assay in SKBR3 cells. In kind it is cell-based, human. The method in brief:
as §1
For orientation: In TR-FRET formats the signal depends on donor and acceptor labels being close together.

The mark [3] stands for this setting: Homo sapiens; T47D (PI3Kα-H1047R) cells, HTRF phospho-AKT(S473), 2 hours compound incubation.
The mark [4] stands for this setting: Homo sapiens, SK-BR-3; SKBR3 (PI3Kα-Wild Type) cells, HTRF phospho-AKT(S473), 2 hours compound incubation, PDGF-BB stimulated.
Setting [5] is: Homo sapiens; HTRF phospho-AKT(S473), T47D (PI3Kα-H1047R) cells, 2 hours compound incubation.
Setting [6] is: Homo sapiens, SK-BR-3; HTRF phospho-AKT(S473), SKBR3 (PI3Kα-Wild Type) cells, 2 hours compound incubation, PDGF-BB stimulated.

Consider `Cc1cc([C@@H](C)Nc2ccc(Cl)nc2C(=O)NS(C)(=O)=O)c2nc(N3CCC(c4cc(C#N)n(C)n4)CC3)n(C)c(=O)c2c1` [Compound 357, (R)-6-chloro-3-((1-(2-(4-(5-cyano-1-methyl-1H-pyrazol-3-yl)piperidin-1-yl)-3,6-dimethyl-4-oxo-3,4-dihydroquinazolin-8-yl)ethyl)amino)-N-(methylsulfonyl) picolinamide], for which the 50% inhibitory concentration (IC50) in experiment [1] (setting [3]) was below 250 nM; in experiment [2] (setting [4]), 1000 to 5000 nM.

In the case of `Cc1cc([C@@H](C)Nc2ccc(Cl)nc2C(=O)NS(C)(=O)=O)c2nc(N3C[C@@H]4C[C@H]3CN4c3cnn(C)c3)n(C)c(=O)c2c1` [Compound 201, 6-chloro-3-(((R)-1-(3,6-dimethyl-2-((1S,4S)-5-(1-methyl-1H-pyrazol-4-yl)-2,5-diazabicyclo[2.2.1]heptan-2-yl)-4-oxo-3,4-dihydroquinazolin-8-yl)ethyl)amino)-N-(methylsulfonyl) picolinamide], the values for the IC50 in experiment [1] (setting [3]) and in experiment [2] (setting [4]) were below 250 nM and 1000 to 5000 nM, respectively.

On to `Cc1cc([C@@H](C)Nc2ccc(Cl)nc2C(=O)NS(C)(=O)=O)c2nc(N3CCN(c4cnc(C)c(F)c4)CC3)n(C)c(=O)c2c1` [Compound 652, (R)-6-chloro-3-((1-(2-(4-(5-fluoro-6-methylpyridin-3-yl)piperazin-1-yl)-3,6-dimethyl-4-oxo-3,4-dihydroquinazolin-8-yl)ethyl)amino)-N-(methylsulfonyl) picolinamide], for which the values for the concentration for half-maximal inhibition (IC50) in experiment [1] (setting [5]) and in experiment [2] (setting [6]) were 250 to 500 nM and 1000 to 5000 nM, respectively.

Consider `Cc1cc([C@@H](C)Nc2ccc(Cl)nc2C(=O)NS(C)(=O)=O)c2nc(N3CCC(c4ncnn4C(C)C)CC3)n(C)c(=O)c2c1` [Compound 719, (R)-6-chloro-3-((1-(2-(4-(1-isopropyl-1H-1,2,4-triazol-5-yl)piperidin-1-yl)-3,6-dimethyl-4-oxo-3,4-dihydroquinazolin-8-yl)ethyl)amino)-N-(methylsulfonyl) picolinamide], for which the figures for the IC50 in experiment [1] (setting [5]) and in experiment [2] (setting [6]) were 250 to 500 nM and at least 5000 nM, respectively.

On to `Cc1cc([C@@H](C)Nc2ccc(Cl)nc2C(=O)NS(C)(=O)=O)c2nc(C3CCN(c4ccc(C#N)cn4)CC3)n(C)c(=O)c2c1` [Compound 186, (R)-6-chloro-3-((1-(2-(1-(5-cyanopyridin-2-yl)piperidin-4-yl)-3,6-dimethyl-4-oxo-3,4-dihydroquinazolin-8-yl)ethyl)amino)-N-(methylsulfonyl) picolinamide], for which the IC50 in experiment [1] (setting [3]) was below 250 nM; in experiment [2] (setting [4]), 1000 to 5000 nM.

As for `Cc1cnc(N2C[C@@H]3[C@H](C2)[C@H]3c2nc3c([C@@H](C)Nc4ccc(Cl)nc4C(=O)NS(C)(=O)=O)cc(C)cc3c(=O)n2C)nc1` [Compound 810, 6-chloro-3-(((R)-1-(3,6-dimethyl-2-((1R,5S,6r)-3-(5-methylpyrimidin-2-yl)-3-azabicyclo[3.1.0]hexan-6-yl)-4-oxo-3,4-dihydroquinazolin-8-yl)ethyl)amino)-N-(methylsulfonyl) picolinamide], the IC50 is 250 to 500 nM in experiment [1] (setting [5]) and at least 5000 nM in experiment [2] (setting [6]).

As to `Cc1cc([C@@H](C)Nc2ccc(Cl)nc2C(=O)NS(C)(=O)=O)c2nc(N3CCC(c4cn[nH]c4)CC3)n(C)c(=O)c2c1` [Compound 167, (R)-3-((1-(2-(4-(1H-pyrazol-4-yl)piperidin-1-yl)-3,6-dimethyl-4-oxo-3,4-dihydroquinazolin-8-yl)ethyl)amino)-6-chloro-N-(methylsulfonyl) picolinamide], the IC50 was below 250 nM in experiment [1] (setting [3]) and 1000 to 5000 nM in experiment [2] (setting [4]).

On to `Cc1cc([C@@H](C)Nc2ccc(Cl)nc2C(=O)NS(C)(=O)=O)c2nc(N3CCC(c4ccn(C)n4)CC3)n(C)c(=O)c2c1` [Compound 178, (R)-6-chloro-3-((1-(3,6-dimethyl-2-(4-(1-methyl-1H-pyrazol-3-yl)piperidin-1-yl)-4-oxo-3,4-dihydroquinazolin-8-yl)ethyl)amino)-N-(methylsulfonyl) picolinamide], for which the figures for the half-inhibitory concentration (IC50) in experiment [1] (setting [3]) and in experiment [2] (setting [4]) were below 250 nM and 1000 to 5000 nM, respectively.

In the case of `Cc1cc([C@@H](C)Nc2ccc(Cl)nc2C(=O)NS(C)(=O)=O)c2nc(N3CCC[C@H](c4cc[nH]n4)C3)n(C)c(=O)c2c1` (relative stereo) [Compound 213, 3-(((R)-1-(2-((R*)-3-(1H-pyrazol-3-yl)piperidin-1-yl)-3,6-dimethyl-4-oxo-3,4-dihydroquinazolin-8-yl)ethyl)amino)-6-chloro-N-(methylsulfonyl) picolinamide], the IC50 in experiment [1] (setting [3]) was below 250 nM; in experiment [2] (setting [4]) it was 1000 to 5000 nM.

Take `Cc1cc([C@@H](C)Nc2ccc(Cl)nc2C(=O)NS(C)(=O)=O)c2nc(N3CCC[C@@H](Oc4cncnc4)C3)n(C)c(=O)c2c1` [Compound 360, 6-chloro-3-(((R)-1-(3,6-dimethyl-4-oxo-2-((R)-3-(pyrimidin-5-yloxy)piperidin-1-yl)-3,4-dihydroquinazolin-8-yl)ethyl)amino)-N-(methylsulfonyl) picolinamide]: the IC50 in experiment [1] (setting [3]) was 250 to 500 nM; in experiment [2] (setting [4]) it was at least 5000 nM.

For the molecule `Cc1ccc(C2CCN(c3nc4c([C@@H](C)Nc5ccc(Cl)nc5C(=O)NS(C)(=O)=O)cc(C)cc4c(=O)n3C)CC2)nc1` [Compound 403, (R)-6-chloro-3-((1-(3,6-dimethyl-2-(4-(5-methylpyridin-2-yl)piperidin-1-yl)-4-oxo-3,4-dihydroquinazolin-8-yl)ethyl)amino)-N-(methylsulfonyl) picolinamide], the concentration for half-maximal inhibition (IC50) in experiment [1] (setting [3]) is below 250 nM; in experiment [2] (setting [4]) it was at least 5000 nM.

Turning to `Cc1cc([C@@H](C)Nc2ccc(Cl)nc2C(=O)NS(C)(=O)=O)c2nc(N3Cc4cn(C)nc4C3)n(C)c(=O)c2c1` [Compound 396, (R)-6-chloro-3-((1-(3,6-dimethyl-2-(2-methyl-2,6-dihydropyrrolo[3,4-c]pyrazol-5(4H)-yl)-4-oxo-3,4-dihydroquinazolin-8-yl)ethyl)amino)-N-(methylsulfonyl) picolinamide], the values for the IC50 in experiment [1] (setting [3]) and in experiment [2] (setting [4]) were below 250 nM and 1000 to 5000 nM, respectively.

Consider `Cc1cc([C@@H](C)Nc2ccc(Cl)nc2C(=O)NS(C)(=O)=O)c2nc(N3CCC(c4cnc(C(F)F)cn4)CC3)n(C)c(=O)c2c1` [Compound 428, (R)-6-chloro-3-((1-(2-(4-(5-(difluoromethyl)pyrazin-2-yl)piperidin-1-yl)-3,6-dimethyl-4-oxo-3,4-dihydroquinazolin-8-yl)ethyl)amino)-N-(methylsulfonyl) picolinamide], for which the half-inhibitory concentration (IC50) in experiment [1] (setting [3]) lay within 250 to 500 nM; in experiment [2] (setting [4]), 1000 to 5000 nM.

With `Cc1cc([C@@H](C)Nc2ccc(Cl)nc2C(=O)NS(C)(=O)=O)c2nc(N3C[C@@H]4[C@H](C3)[C@H]4c3ccn(C)n3)n(C)c(=O)c2c1` [Compound 295, 6-chloro-3-(((R)-1-(3,6-dimethyl-2-((1R,5S,6R)-6-(1-methyl-1H-pyrazol-3-yl)-3-azabicyclo[3.1.0]hexan-3-yl)-4-oxo-3,4-dihydroquinazolin-8-yl)ethyl)amino)-N-(methylsulfonyl) picolinamide], the 50% inhibitory concentration (IC50) in experiment [1] (setting [3]) is below 250 nM; in experiment [2] (setting [4]) it was 1000 to 5000 nM.

On to `Cc1cc([C@@H](C)Nc2ccc(Cl)nc2C(=O)NS(C)(=O)=O)c2nc(N3C[C@@H]4[C@H](C3)[C@H]4c3nn(C)cc3C)n(C)c(=O)c2c1` [Compound 415, 6-chloro-3-(((R)-1-(2-((1R,5S,6R)-6-(1,4-dimethyl-1H-pyrazol-3-yl)-3-azabicyclo[3.1.0]hexan-3-yl)-3,6-dimethyl-4-oxo-3,4-dihydroquinazolin-8-yl)ethyl)amino)-N-(methylsulfonyl) picolinamide], for which the IC50 in experiment [1] (setting [3]) was below 250 nM; in experiment [2] (setting [4]), 1000 to 5000 nM.
